Tested on: HCT 116 (colon)
Experiment: Human xenograft model, tumor growth inhibition
Assay type: in vivo, female athymic nude mice
Settings: A8 50 mg/kg po qd x 14 + vehicle (saline) iv D1,8,15
Experimental: To assess in vivo antitumor activity in human xenograft models, female athymic nude mice, 12 to 14 weeks of age, were implanted subcutaneously in the flank with human cancer cells. When the tumors reached approximately 100 mm^3 in size, the mice were pair-matched into various treatment groups. For oral administration, compounds were dissolved in a mixture of 0.5% methylcellulose and 0.1% Tween 80 and administered by gavage to the tumor-bearing mice. For i.v.andi.p..administration, compounds were dissolved in 0.9% NaCI and for the i.v. administration, the compound was administered via the tail vein.
Percent tumor growth inhibition (%TGI) was calculated as %TGI = (Cday a−Tday a)/(Cday a−Cday 1) × 100 [formula]
Where C is the median tumor volume of the control group, T is the median tumor volume of the treatment group, and day a is the day of assessment.
It is evident that the combination of a benzimidazole based anti-cancer agent such as Compound (A8) with the different anti-cancer agents enhanced the anti-tumor effect as compared to administering either of the drug on its own. Table 5: Examples of combination of Compound (A8) and anti-cancer agents in in vivo cancer models

CCCCc1nc2cc(/C=C/C(=O)NO)ccc2n1CCN(CC)CC [Compound A8, 3-[2-Butyl-1-(2-diethylamino-ethyl)-1H-benzimidazol-5-yl]-N-hydroxy-acrylamide]
%TGI at Day 15: 64%

Reference: patent EP3449923A1, “COMBINATION OF BEN[…]-CANCER AGENT AND A SECOND ANTI-CANCER AGENT” (MEI Pharma, Inc., priority 2007, dated 2008)
